In US8299035B2, “10a-azalide compound having 4-membered ring structure” (Taisho Pharmaceutucal Co., Ltd., priority 2008, dated 2012):
In brackets after ≈: the same amount, converted by molar mass.

Tests used:
Assay in all cases: In vitro antibacterial activity, microbroth dilution method (CLSI method)
Format in all cases: cell-based
H. influenzae ATCC 43095 = conditions: bacteria symbol A = H. influenzae ATCC 43095
Method: (§1) In vitro antibacterial activities of the compounds of the present invention against various test bacteria were measured according to the microbroth dilution method (CLSI method). The exemplary compounds shown in Table 9 and the comparative agent 1, clarithromycin, were used as test substances. The results are shown as MIC values (minimum inhibitory concentration, μg/ml) in Table 9. [table]

H. influenzae Rd = conditions: bacteria symbol B = H. influenzae Rd
Method: as §1

S. pneumoniae ATCC 49619 = conditions: bacteria symbol C = S. pneumoniae ATCC 49619
Method: as §1

[1] = test system: S. pneumoniae ATCC 700904; conditions: bacteria symbol D = S. pneumoniae ATCC 700904
Method: as §1

Row | SMILES | MIC values (minimum inhibitory concentration) (H. influenzae ATCC 43095) | MIC values (minimum inhibitory concentration) (H. influenzae Rd) | MIC values (minimum inhibitory concentration) (S. pneumoniae ATCC 49619) | MIC values (minimum inhibitory concentration) [1] | MIC (H. influenzae ATCC 43095; Haemophilus influenzae, ATCC43095, read-out: MIC values (minimum inhibitory concentration)) | MIC (H. influenzae Rd; Haemophilus influenzae, read-out: MIC values (minimum inhibitory concentration)) | MIC (S. pneumoniae ATCC 49619; Streptococcus pneumoniae, ATCC49619, read-out: MIC values (minimum inhibitory concentration)) | MIC ([1]; Streptococcus pneumoniae, ATCC700904, read-out: MIC values (minimum inhibitory concentration))
1 | COC1(C)CC(C)C(O)C(C)N2CC(C2)OC(=O)C(C)C(OC2CC(C)(OC)C(O)(CN(C)CCN(C)C(C)c3ccccc3-c3ccccn3)C(C)O2)C(C)C1OC1OC(C)CC(N(C)C)C1O (stereo not shown) [Example 195] | 4 µg/mL (≈ 4.12 µM) | 8 µg/mL (≈ 8.24 µM) | 0.03 µg/mL (≈ 0.0309 µM) | 0.06 µg/mL (≈ 0.0618 µM) |  |  |  | 
2 | CO[C@]1(C)C[C@H](O[C@H]2[C@H](C)[C@@H](O[C@@H]3O[C@H](C)C[C@H](N(C)C)[C@H]3O)[C@@](C)(OC)C[C@@H](C)[C@H](O)[C@H](C)N3CC(C3)OC(=O)[C@@H]2C)O[C@@H](C)[C@@H]1O (mixture of isomers) [Example 1] | 0.5 µg/mL | 1 µg/mL | 0.12 µg/mL | >128 µg/mL |  |  |  | 
3 | COc1ccccc1C(C)(C)N(C)Cc1cncn1CC1(O)C(C)OC(OC2C(C)C(=O)OC3CN(C3)C(C)C(O)C(C)CC(C)(OC)C(OC3OC(C)CC(N(C)C)C3O)C2C)CC1(C)OC (stereo not shown) [Example 204] | 16 µg/mL (≈ 16.7 µM) | 16 µg/mL (≈ 16.7 µM) | 0.03 µg/mL (≈ 0.0312 µM) | 1 µg/mL (≈ 1.04 µM) |  |  |  | 
4 | COc1ccccc1C(C)(C)N(C)CC1CN(CC2(O)C(C)OC(OC3C(C)C(=O)OC4CN(C4)C(C)C(O)C(C)CC(C)(OC)C(OC4OC(C)CC(N(C)C)C4O)C3C)CC2(C)OC)C1 (stereo not shown) [Example 162] | 2 µg/mL (≈ 2.11 µM) | 2 µg/mL (≈ 2.11 µM) | 0.03 µg/mL (≈ 0.0316 µM) | 0.12 µg/mL (≈ 0.126 µM) |  |  |  | 
5 | CCN(CCNC(=O)O[C@H]1[C@H](C)O[C@@H](O[C@H]2[C@H](C)[C@@H](O[C@@H]3O[C@H](C)C[C@H](N(C)C)[C@H]3O)[C@@](C)(OC)C[C@@H](C)[C@H](O)[C@H](C)N3CC(C3)OC(=O)[C@@H]2C)C[C@@]1(C)OC)[C@@H](C)c1ccccc1OC [Example 2] | 4 µg/mL (≈ 4.27 µM) | 8 µg/mL (≈ 8.54 µM) | 0.06 µg/mL (≈ 0.064 µM) | 0.25 µg/mL (≈ 0.267 µM) |  |  |  | 
6 | CCN(CCNC[C@@]1(O)[C@H](C)O[C@@H](O[C@H]2[C@H](C)[C@@H](O[C@@H]3O[C@H](C)C[C@H](N(C)C)[C@H]3O)[C@@](C)(OC)C[C@@H](C)C(=O)[C@H](C)N3CC(C3)OC(=O)[C@@H]2C)C[C@@]1(C)OC)[C@@H](C)c1ccccc1OC [Example 5] | 4 µg/mL (≈ 4.34 µM) | 8 µg/mL (≈ 8.68 µM) | 0.03 µg/mL (≈ 0.0326 µM) | 0.5 µg/mL (≈ 0.543 µM) |  |  |  | 
7 | CC[C@H]1OC(=O)[C@H](C)[C@@H](O[C@H]2C[C@@](C)(OC)[C@@H](O)[C@H](C)O2)[C@H](C)[C@@H](O[C@@H]2O[C@H](C)C[C@H](N(C)C)[C@H]2O)[C@](C)(OC)C[C@@H](C)C(=O)[C@H](C)[C@@H](O)[C@]1(C)O [Comparative agent 1, clarithromycin, reference compound] |  |  |  |  | 4 µg/mL (≈ 5.35 µM) | 8 µg/mL (≈ 10.7 µM) | 0.03 µg/mL (≈ 0.0401 µM) | > 128 µg/mL
8 | CCN(CCNC(=O)O[C@H]1[C@H](C)O[C@@H](O[C@H]2[C@H](C)[C@@H](O[C@@H]3O[C@H](C)C[C@H](N(C)C)[C@H]3O)[C@@](C)(O)C[C@@H](C)[C@H](O)[C@H](C)N3CC(C3)OC(=O)[C@@H]2C)C[C@@]1(C)OC)[C@@H](C)c1ccccc1OC [Example 12] | 8 µg/mL (≈ 8.67 µM) | 8 µg/mL (≈ 8.67 µM) | 0.03 µg/mL (≈ 0.0325 µM) | 0.25 µg/mL (≈ 0.271 µM) |  |  |  | 
9 | COc1ncccc1C(C)(C)N(C)CCN(C)C[C@@]1(O)[C@H](C)O[C@@H](O[C@H]2[C@H](C)[C@@H](O[C@@H]3O[C@H](C)C[C@H](N(C)C)[C@H]3O)[C@@](C)(O)C[C@@H](C)[C@H](O)[C@H](C)N3CC(C3)OC(=O)[C@@H]2C)C[C@@]1(C)OC [Example 221] | 8 µg/mL (≈ 8.66 µM) | 8 µg/mL (≈ 8.66 µM) | 0.06 µg/mL (≈ 0.0649 µM) | 1 µg/mL (≈ 1.08 µM) |  |  |  | 

Now from value to compound:

Row | MIC values (minimum inhibitory concentration) (H. influenzae ATCC 43095) | MIC values (minimum inhibitory concentration) (H. influenzae Rd) | MIC values (minimum inhibitory concentration) (S. pneumoniae ATCC 49619) | MIC values (minimum inhibitory concentration) [1] | MIC (H. influenzae ATCC 43095; Haemophilus influenzae, ATCC43095, read-out: MIC values (minimum inhibitory concentration)) | MIC (H. influenzae Rd; Haemophilus influenzae, read-out: MIC values (minimum inhibitory concentration)) | MIC (S. pneumoniae ATCC 49619; Streptococcus pneumoniae, ATCC49619, read-out: MIC values (minimum inhibitory concentration)) | MIC ([1]; Streptococcus pneumoniae, ATCC700904, read-out: MIC values (minimum inhibitory concentration)) | SMILES
10 | 4 µg/mL (≈ 4.2 µM) | 4 µg/mL (≈ 4.2 µM) | 0.03 µg/mL (≈ 0.0315 µM) | 0.06 µg/mL (≈ 0.0629 µM) |  |  |  |  | CCN(CC(CO)NCC1(O)C(C)OC(OC2C(C)C(=O)OC3CN(C3)C(C)C(O)C(C)CC(C)(OC)C(OC3OC(C)CC(N(C)C)C3O)C2C)CC1(C)OC)C(C)c1ccccc1OC (stereo not shown) [Example 107]
11 | 4 µg/mL (≈ 4.33 µM) | 4 µg/mL (≈ 4.33 µM) | 0.03 µg/mL (≈ 0.0325 µM) | 0.12 µg/mL (≈ 0.13 µM) |  |  |  |  | CCN(CCNC[C@@]1(O)[C@H](C)O[C@@H](O[C@H]2[C@H](C)[C@@H](O[C@@H]3O[C@H](C)C[C@H](N(C)C)[C@H]3O)[C@@](C)(OC)C[C@@H](C)[C@H](O)[C@H](C)N3CC(C3)OC(=O)[C@@H]2C)C[C@@]1(C)OC)[C@@H](C)c1ccccc1OC [Example 3]
12 | 2 µg/mL (≈ 2.13 µM) | 2 µg/mL (≈ 2.13 µM) | 0.03 µg/mL (≈ 0.032 µM) | 0.12 µg/mL (≈ 0.128 µM) |  |  |  |  | COc1ccccc1C(C)(C)N(C)CCN(C)CC1(O)C(C)OC(OC2C(C)C(=O)OC3CN(C3)C(C)C(O)C(C)CC(C)(OC)C(OC3OC(C)CC(N(C)C)C3O)C2C)CC1(C)OC (stereo not shown) [Example 71]
13 | 8 µg/mL (≈ 8.43 µM) | 16 µg/mL (≈ 16.9 µM) | 0.12 µg/mL (≈ 0.126 µM) | 0.5 µg/mL (≈ 0.527 µM) |  |  |  |  | COc1cccc2c1CCCC2N(C)CCN(C)CC1(O)C(C)OC(OC2C(C)C(=O)OC3CN(C3)C(C)C(O)C(C)CC(C)(OC)C(OC3OC(C)CC(N(C)C)C3O)C2C)CC1(C)OC (stereo not shown) [Example 133]
14 | 4 µg/mL (≈ 4.34 µM) | 8 µg/mL (≈ 8.68 µM) | 0.06 µg/mL (≈ 0.0651 µM) | 1 µg/mL (≈ 1.09 µM) |  |  |  |  | COc1cccc2c1CN(CCN(C)CC1(O)C(C)OC(OC3C(C)C(=O)OC4CN(C4)C(C)C(O)C(C)CC(C)(OC)C(OC4OC(C)CC(N(C)C)C4O)C3C)CC1(C)OC)CC2 (stereo not shown) [Example 132]
15 | 4 µg/mL (≈ 4.29 µM) | 4 µg/mL (≈ 4.29 µM) | 0.12 µg/mL (≈ 0.129 µM) | 0.25 µg/mL (≈ 0.268 µM) |  |  |  |  | COC1(C)CC(C)C(O)C(C)N2CC(C2)OC(=O)C(C)C(OC2CC(C)(OC)C(O)(CNCCNC(C)(C)c3cccc4c3ccn4C)C(C)O2)C(C)C1OC1OC(C)CC(N(C)C)C1O (stereo not shown) [Example 70]
16 | 4 µg/mL (≈ 4.2 µM) | 4 µg/mL (≈ 4.2 µM) | 0.016 µg/mL (≈ 0.0168 µM) | 0.06 µg/mL (≈ 0.0631 µM) |  |  |  |  | CCN(CC(C)NCC1(O)C(C)OC(OC2C(C)C(=O)OC3CN(C3)C(C)C(O)C(C)CC(C)(OC)C(OC3OC(C)CC(N(C)C)C3O)C2C)CC1(C)OC)C(C)(C)c1ccccc1OC (stereo not shown) [Example 84]
